Tests used:
Type in all cases: in vivo
[1] = test system: corn seeds; assay: Corn seed germination experiment (seed soaking method, NYT 2061.1-2011)
Text: Test Method: Ministerial Standard NYT 2061.1-2011, Seed Soaking Method
Test samples: crude chlorin, and dihydroporphin monomers including chlorin fG, chlorin e6, pheophorbide, pyropheophorbide, chlorin e4, purpurin-7, purpurin-18, chlorin p6, 15-formyl rhodochlorin, 15-oxymethyl rhodochlorin, 15-oxymethyl rhodochlorin lactone A, 15-hydroxymethyl rhodochlorin, and 15-hydroxymethyl rhodochlorin lactone B, and pure water and iron chlorin e6 (China Pesticide Registration Certificate Number: PD20190031) were used as blank and positive control.
10 mg of each sample was weighed and put into a 10 ml volumetric flask, dissolved with DMSO, and diluted to volume after being dissolved completely. 1 ml of each diluted monomer solution was put into a 50-1000 ml volumetric flask, added with water, blended and diluted to volume so as to prepare a solution with a concentration of 2 ppm, 0.2 ppm, or 0.02 ppm.
The method was substantially the same as that in Example 2, except that the test samples were monomer chlorin e6 and control monomer chlorin e6 iron (III), both at a concentration of 0.02 ppm and the test seeds were corn, soybean, rice and wheat seeds. The preparation method of the control monomer was conducted by referring to CN102273467B.

[2] = test system: rice seeds; assay: Rice seed germination experiment (seed soaking method)
Experimental: (§1) Test Method: Ministerial Standard NYT 2061.1-2011, Seed Soaking Method 10 mg of each sample was weighed and put into a 10 ml volumetric flask, dissolved with DMSO, and diluted to volume after being dissolved completely. 1 ml of each diluted monomer solution was put into a 50-1000 ml volumetric flask, added with water, blended and diluted to volume so as to prepare a solution with a concentration of 2 ppm, 0.2 ppm, or 0.02 ppm. The method was substantially the same as that in Example 2 except that rice seeds were used as the crop seeds. The method was substantially the same as that in Example 2, except that the test samples were monomer chlorin e6 and control monomer chlorin e6 iron (III), both at a concentration of 0.02 ppm and the test seeds were corn, soybean, rice and wheat seeds. The preparation method of the control monomer was conducted by referring to CN102273467B.

[3] = test system: soybean seeds; assay: Soybean seed germination experiment (seed soaking method)
Experimental: Test Method: Ministerial Standard NYT 2061.1-2011, Seed Soaking Method 10 mg of each sample was weighed and put into a 10 ml volumetric flask, dissolved with DMSO, and diluted to volume after being dissolved completely. 1 ml of each diluted monomer solution was put into a 50-1000 ml volumetric flask, added with water, blended and diluted to volume so as to prepare a solution with a concentration of 2 ppm, 0.2 ppm, or 0.02 ppm. The method was substantially the same as that in Example 1 except that soybean seeds were used as the crop seeds, and the samples were crude chlorin, pyropheophorbide, chlorin f, chlorin e6, chlorin e4, purpurin-18, 15-oxymethyl rhodochlorin lactone, and 15-hydroxymethyl rhodochlorin lactone. The method was substantially the same as that in Example 2, except that the test samples were monomer chlorin e6 and control monomer chlorin e6 iron (III), both at a concentration of 0.02 ppm and the test seeds were corn, soybean, rice and wheat seeds. The preparation method of the control monomer was conducted by referring to CN102273467B.

[4] = test system: wheat seeds; assay: Wheat seed germination experiment (seed soaking method)
Experimental: as §1, with “that wheat” for “that rice”

[5] = test system: soybean seeds; assay: Soybean seed germination experiment (seed soaking method); conditions: 0.2 ppm sample solution
[6] = 0.02 ppm sample solution, seed soaking
[7] = 0.2 ppm sample solution, seed soaking
[8] = 2 ppm sample solution, seed soaking
[9] = soybean seeds, 0.02 ppm sample solution
[10] = soybean seeds, 0.2 ppm sample solution
[11] = soybean seeds, 2 ppm sample solution
[12] = comparison of the monomers, 0.02 ppm
[13] = comparison of the monomers, 0.02 ppm, listed as chlorin e6
[14] = comparison of the monomers, soy bean seeds, 0.02 ppm

15-oxymethyl rhodochlorin
Germination rate % [1, 6]: 56%
Germination rate % [1, 7]: 52%
Germination rate % [1, 8]: 52%

15-oxymethyl rhodochlorin lactone
Germination rate % [1, 6]: 54%
Germination rate % [1, 7]: 66%
Germination rate % [1, 8]: 58%
Germination rate % ([2]; 0.02 ppm sample solution): 72%
Germination rate % ([2]; 2 ppm sample solution): 70%
Germination rate % [3, 9]: 58%
Germination rate % [3, 10]: 58%
Germination rate % [3, 11]: 60%
Germination rate % ([4]; 0.2 ppm sample solution): 94%
Germination rate % ([4]; 2 ppm sample solution): 82%

C=Cc1c(C)c2cc3nc(c(C=O)c4[nH]c(cc5nc(cc1[nH]2)C(C)=C5CC)c(C)c4C(=O)O)[C@@H](CCC(=O)O)[C@@H]3C [15-formyl rhodochlorin]
Germination rate % [1, 6]: 52%
Germination rate % [1, 7]: 51%
Germination rate % [1, 8]: 54%

C=Cc1c(C)c2cc3nc(c4c5[nH]c(cc6nc(cc1[nH]2)C(C)=C6CC)c(C)c5C(=O)OC4)C(CCC(=O)O)C3C (centres unmarked) [15-hydroxymethyl rhodochlorin lactone]
Germination rate % [1, 6]: 60%
Germination rate % [1, 7]: 54%
Germination rate % [1, 8]: 48%
Germination rate % ([2]; 0.02 ppm sample solution): 72%
Germination rate % ([2]; 0.2 ppm sample solution): 74%
Germination rate % ([2]; 2 ppm sample solution): 68%
Germination rate % [3, 10]: 60%
Germination rate % ([4]; 0.02 ppm sample solution): 86%
Germination rate % ([4]; 0.2 ppm sample solution): 96%
Germination rate % ([4]; 2 ppm sample solution): 92%

C=Cc1c(C)c2cc3nc(c(CO)c4[nH]c(cc5nc(cc1[nH]2)C(C)=C5CC)c(C)c4C(=O)O)C(CCC(=O)O)C3C (centres unmarked) [15-hydroxymethyl rhodochlorin]
Germination rate % [1, 6]: 58%
Germination rate % [1, 7]: 59%
Germination rate % [1, 8]: 55%

C=Cc1c(C)c2cc3nc(c(C)c4[nH]c(cc5nc(cc1[nH]2)C(C)=C5CC)c(C)c4C(=O)O)[C@@H](CCC(=O)O)[C@@H]3C [Chlorin e4, chlorin e4]
Germination rate % [1, 6]: 57%
Germination rate % [1, 7]: 55%
Germination rate % [1, 8]: 48%
Germination rate % ([2]; 0.02 ppm sample solution): 71%
Germination rate % ([2]; 0.2 ppm sample solution): 76%
Germination rate % ([2]; 2 ppm sample solution): 77%
Germination rate % [3, 9]: 67%
Germination rate % [3, 10]: 66%
Germination rate % [3, 11]: 65%
Germination rate % ([4]; 0.02 ppm sample solution): 93%
Germination rate % ([4]; 0.2 ppm sample solution): 98%
Germination rate % ([4]; 2 ppm sample solution): 97%

C=Cc1c(C)c2cc3nc(c(CC(=O)O)c4[nH]c(cc5nc(cc1[nH]2)C(C)=C5CC)c(C)c4C(=O)O)[C@@H](CCC(=O)O)[C@@H]3C [Chlorin e6, chlorin e6]
Germination rate % [1, 6]: 58%
Germination rate % [1, 7]: 42%
Germination rate % [1, 8]: 46%
Germination rate % [1, 12]: 58%
Germination rate % [1, 13]: all better than those for the iron chelate monomer chlorin e6 iron (III)
Germination rate % ([2]; 0.02 ppm sample solution): 70%
Germination rate % ([2]; 0.2 ppm sample solution): 74%
Germination rate % ([2]; 2 ppm sample solution): 68%
Germination rate % [2, 12]: 76%
Germination rate % [2, 13]: all better than those for the iron chelate monomer chlorin e6 iron (III)
Germination rate % [3, 14]: 66%
Germination rate % ([3]; comparison of the monomers, soy bean seeds, 0.02 ppm, listed as chlorin e6): all better than those for the iron chelate monomer chlorin e6 iron (III)
Germination rate % [3, 9]: 60%
Germination rate % [3, 10]: 59%
Germination rate % [3, 11]: 60%
Germination rate % ([4]; 0.02 ppm sample solution): 94%
Germination rate % ([4]; 0.02 ppm sample solution, listed as chlorin e6): best germination effect
Germination rate % ([4]; 0.2 ppm sample solution): 96%
Germination rate % ([4]; 2 ppm sample solution): 90%
Germination rate % [4, 12]: 94%
Germination rate % [4, 13]: all better than those for the iron chelate monomer chlorin e6 iron (III)

C=Cc1c(C)c2cc3nc(c(C(=O)O)c4[nH]c(cc5nc(cc1[nH]2)C(C)=C5CC)c(C)c4C(=O)O)[C@@H](CCC(=O)O)[C@@H]3C [Chlorin p6, chlorin p6]
Germination rate % [1, 6]: 49%
Germination rate % [1, 7]: 55%
Germination rate % [1, 8]: 52%

C=Cc1c(C)c2cc3nc(c4c5[nH]c(cc6nc(cc1[nH]2)C(C)=C6CC)c(C)c5C(=O)[C@@H]4C(=O)OC)[C@@H](CCC(=O)O)[C@@H]3C [Pheophorbide, pheophorbide]
Germination rate % [1, 6]: 57%
Germination rate % [1, 7]: 55%
Germination rate % [1, 8]: 56%

C=Cc1c(C)c2cc3nc(c4c5[nH]c(cc6nc(cc1[nH]2)C(C)=C6CC)c(C)c5C(=O)OC4=O)[C@@H](CCC(=O)O)[C@@H]3C [Purpurin-18, purpurin-18]
Germination rate % [1, 6]: 55%
Germination rate % [1, 7]: 58%
Germination rate % [1, 8]: 53%
Germination rate % ([2]; 0.02 ppm sample solution): 77%
Germination rate % ([2]; 0.2 ppm sample solution): 78%
Germination rate % ([2]; 2 ppm sample solution): 76%
Germination rate % [3, 9]: 66%
Germination rate % [3, 10]: 65%
Germination rate % [3, 11]: 67%
Germination rate % ([4]; 0.02 ppm sample solution): 97%
Germination rate % ([4]; 0.2 ppm sample solution): 97%
Germination rate % ([4]; 2 ppm sample solution): 95%

C=Cc1c(C)c2cc3nc(c4c5[nH]c(cc6nc(cc1[nH]2)C(C)=C6CC)c(C)c5C(=O)C4)[C@@H](CCC(=O)O)[C@@H]3C [Pyropheophorbide, pyropheophorbide]
Germination rate % [1, 6]: 58%
Germination rate % [1, 7]: 56%
Germination rate % [1, 8]: 55%
Germination rate % ([2]; 0.02 ppm sample solution): 73%
Germination rate % ([2]; 0.2 ppm sample solution): 74%
Germination rate % ([2]; 2 ppm sample solution): 72%
Germination rate % [3, 9]: 61%
Germination rate % [3, 10]: 67%
Germination rate % [3, 11]: 65%
Germination rate % ([4]; 0.02 ppm sample solution): 94%
Germination rate % ([4]; 0.2 ppm sample solution): 92%
Germination rate % ([4]; 2 ppm sample solution): 93%

chlorin e6 iron (III) [reference compound]
Germination rate % [1, 12]: 46%
Germination rate % [2, 12]: 58%
Germination rate % [3, 14]: 60%
Germination rate % [4, 12]: 92%

chlorin f
Germination rate % [1, 6]: 55%
Germination rate % [1, 7]: 66%
Germination rate % [1, 8]: 58%
Germination rate % ([2]; 0.02 ppm sample solution): 76%
Germination rate % ([2]; 0.2 ppm sample solution): 72%
Germination rate % ([2]; 2 ppm sample solution): 66%
Germination rate % [3, 9]: 66%
Germination rate % [3, 10]: 54%
Germination rate % [3, 11]: 62%
Germination rate % ([3]; soybean seeds, 2 ppm sample solution, listed as chlorin f): better germination effects than the positive control
Germination rate % ([4]; 0.02 ppm sample solution): 94%
Germination rate % ([4]; 0.02 ppm sample solution, listed as chlorin f): best germination effect
Germination rate % ([4]; 0.2 ppm sample solution): 88%
Germination rate % ([4]; 2 ppm sample solution): 92%

iron chlorin e6 [reference compound]
Germination rate % [1, 6]: 53%
Germination rate % [1, 7]: 57%
Germination rate % [1, 8]: 64%
Germination rate % ([2]; 0.02 ppm sample solution): 78%
Germination rate % ([2]; 0.02 ppm sample solution, listed as iron chlorin e6): best germination effect
Germination rate % ([2]; 0.2 ppm sample solution): 76%
Germination rate % ([2]; 2 ppm sample solution): 74%
Germination rate % ([2]; 2 ppm sample solution, listed as iron chlorin e6): best germination effect
Germination rate % [3, 9]: 60%
Germination rate % [3, 10]: 66%
Germination rate % [3, 11]: 56%
Germination rate % ([4]; 0.02 ppm sample solution): 90%
Germination rate % ([4]; 0.2 ppm sample solution): 88%
Germination rate % ([4]; 2 ppm sample solution): 86%
Germination rate % [5]: most ideal germination effect

purpurin-7
Germination rate % [1, 6]: 56%
Germination rate % [1, 7]: 57%
Germination rate % [1, 8]: 53%

Source: patent publication US12279618B2, “Use of dihydroporphin derived from chlorophyll as plant growth regulator” (Anqing Better Bioengineering Co., Ltd, priority 2019, dated 2025)
